From PubChem BioAssay AID2060498 (Molecular Pharmacology Branch, DTP, NCI, 2025)
Each block holds one compound with its values, some of them ahead of it.

Test system: 171881-019-R-J1-PDC tumor spheroids, viability
Test: Anticancer human tumor 171881-019-R-J1-PDC patient-derived invasive breast carcinoma cell line growth inhibition [GQUAD]
Details: spheroids with HUVEC and MSC; for IC50: curve of first compound; for viability, T/C: stronger effect = lower value
Source text: DNA G-quadruplex Stabilizer Agents in Combinations in Complex Spheroids
A high-throughput screen of multi-cell type tumor spheroids was designed to identify active combinations of DNA G-quadruplex stabilizer agents and targeted small molecules. Complex spheroids include a stromal component modeled by human endothelial cells (HUVEC) and fibroblasts modeled by human mesenchymal stem cells (MSCs). The concentration ranges selected for each drug and investigational agent were based upon clinically achievable concentrations if the clinical Cmax of the agent was known.
Compounds. The drugs and investigational agents: pidnarulex (CX-5461; NSC782164), APTO-253 (NSC789042), BRACO-19 (NSC847499), peposertib (NSC802822), ceralasertib (NSC780249), elimusertib (NSC800525), camonsertib (NSC841442), AZD-1390 (NSC803789), olaparib (NSC753686), talazoparib (NSC767125), ART-558 (NSC835418), sotorasib (NSC818433), MRTX-1133 (NSC836407), SN-38 (NSC673596), topotecan (NSC609699), etoposide (NSC141540), doxorubicin (NSC123127), gemcitabine (NSC613327), 5-fluorouracil (NSC19893), paclitaxel (NSC125973), vemurafenib (NSC761431), panobinostat (NSC761190), R-306465 (JNJ-16241199; NSC773264), adavosertib (NSC754352), TP-3654 (NSC805149), carboplatin (NSC241240), KSQ-4279 (NSC840948), and staurosporine (NSC755774) were obtained from the National Cancer Institute (NCI) Developmental Therapeutics Program Chemical Repository (34). The FDA-approved anticancer drug set is available from the NCI Developmental Therapeutics Program. […] The stock solutions were prepared in dimethyl sulfoxide (DMSO, Sigma-Aldrich, St. Louis, MO, cat. D2650) at 800-fold the tested concentration and stored at -70 degrees C prior to their use. All drugs and investigational agents were tested over a range starting from a high concentration at or near the clinical Cmax and decreasing in half-log increments. If the clinical Cmax for an agent had not been determined, the highest concentration tested was 10 microM.
2.3 Cell Culture. All cells were maintained in an incubator at 37 degrees C and 5% CO2 with 95% humidity. The PDC lines were cultured according to standard operating procedures established by the NCI PDMR. All PDCs were thawed and cultured in Matrigel-coated flasks prepared with a working solution of 1X Ham's F-12 nutrient mix, without supplementation (Invitrogen, cat. 11765054), 100 U/mL penicillin-streptomycin (Invitrogen, cat. 15140122), and 2.5% Matrigel (Corning Inc., cat. 354248) for the first three passages. The 857933-349-R-J2-PDC line was cultured in 6C/Colon 1B media, which includes advanced DMEM/F-12 (Thermo Fisher Scientific, cat. 12634028), 10 mM HEPES (Thermo Fisher Scientific, cat. 15630080), 1X GlutaMAX supplement (Thermo Fisher Scientific, cat. 35050061), 0.1 mg/mL primocin (InvivoGen, cat. ant-pm-2), 10% defined fetal bovine serum, heat inactivated (HyClone Laboratories Inc., cat. SH30070.03HI), 50% L-WRN conditioned media (ATCC, cat. CRL-3276), 1.25 mM N-Acetyl-L-cysteine (Sigma-Aldrich, cat. A9165), 10 mM nicotinamide (Sigma-Aldrich, cat. N0636), 1X B-27 supplement (Thermo Fisher Scientific, cat. 17504044), 1X N-2 supplement (Thermo Fisher Scientific, cat. 17502048), 10 microM Y-27632 dihydrochloride (Tocris Bioscience, cat. 1254), and 50 ng/mL human EGF recombinant protein (Thermo Fisher Scientific, cat. PHG0311). The 485176-168-R4-J1-PDC line was cultured in Panc media, which includes all 6C/Colon 1B media components plus 100 ng/mL human FGF-10 (Thermo Fisher Scientific, cat. 100-26), 500 nM SB-431542 (Selleckchem, cat. S1067), and gastrin (Tocris, cat. 3006).
[…]

[1] = second compound 0.0316 µM, first compound 0.0316 µM
[2] = second compound 0.0316 µM, first compound 0.1 µM
[3] = second compound 0.0316 µM, first compound 0.316 µM
[4] = second compound 0.0316 µM, first compound 1 µM
[5] = second compound 0.0316 µM, first compound 3.16 µM
[6] = second compound 0.0316 µM, first compound 10 µM
[7] = second compound 0.1 µM, first compound 0.0316 µM
[8] = second compound 0.1 µM, first compound 0.1 µM
[9] = second compound 0.1 µM, first compound 0.316 µM
[10] = second compound 0.1 µM, first compound 1 µM
[11] = second compound 0.1 µM, first compound 3.16 µM
[12] = second compound 0.1 µM, first compound 10 µM
[13] = second compound 0.316 µM, first compound 0.0316 µM
[14] = second compound 0.316 µM, first compound 0.1 µM
[15] = second compound 0.316 µM, first compound 0.316 µM
[16] = second compound 0.316 µM, first compound 1 µM
[17] = second compound 0.316 µM, first compound 3.16 µM
[18] = second compound 0.316 µM, first compound 10 µM
[19] = second compound 1 µM, first compound 0.0316 µM
[20] = second compound 1 µM, first compound 0.1 µM
[21] = second compound 1 µM, first compound 0.316 µM
[22] = second compound 1 µM, first compound 1 µM
[23] = second compound 1 µM, first compound 3.16 µM
[24] = second compound 1 µM, first compound 10 µM
[25] = second compound 3.16 µM, first compound 0.0316 µM
[26] = second compound 3.16 µM, first compound 0.1 µM
[27] = second compound 3.16 µM, first compound 0.316 µM
[28] = second compound 3.16 µM, first compound 1 µM
[29] = second compound 3.16 µM, first compound 3.16 µM
[30] = second compound 3.16 µM, first compound 10 µM
[31] = second compound 10 µM, first compound 0.0316 µM
[32] = second compound 10 µM, first compound 0.1 µM
[33] = second compound 10 µM, first compound 0.316 µM
[34] = second compound 10 µM, first compound 1 µM
[35] = second compound 10 µM, first compound 3.16 µM
[36] = second compound 10 µM, first compound 10 µM
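Note: spheroids exposed to compounds for 7 days.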
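Throughout, for viability, T/C: 100% = DMSO vehicle control viability.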

IC50 (second compound 0.0316 µM): 1040 nM | IC50 (second compound 0.1 µM): 1050 nM | IC50 (second compound 0.316 µM): 755 nM | IC50 (second compound 1 µM): 1120 nM | IC50 (second compound 3.16 µM): 1040 nM | IC50 (second compound 10 µM): 1110 nM
Structure (SMILES): CC1COCCN1c1cc(C2(S(C)(=N)=O)CC2)nc(-c2ccnc3[nH]ccc23)n1 (centres undefined) + Cc1cnc(CNC(=O)c2c(=O)c3ccc(N4CCCN(C)CC4)nc3n3c2sc2ccccc23)cn1
viability, T/C [1]: 93.8% | viability, T/C [2]: 82.8% | viability, T/C [3]: 90.7% | viability, T/C [4]: 50.8% | viability, T/C [5]: 15.5% | viability, T/C [6]: 9.59% | viability, T/C [7]: 87.5% | viability, T/C [8]: 87.8% | viability, T/C [9]: 74.1% | viability, T/C [10]: 53.9% | viability, T/C [11]: 18.7% | viability, T/C [12]: 10.7% | viability, T/C [13]: 74.9% | viability, T/C [14]: 80.5% | viability, T/C [15]: 63.5% | viability, T/C [16]: 45.7% | viability, T/C [17]: 21.7% | viability, T/C [18]: 11.2% | viability, T/C [19]: 67.6% | viability, T/C [20]: 61.5% | viability, T/C [21]: 68.7% | viability, T/C [22]: 50.3% | viability, T/C [23]: 28.7% | viability, T/C [24]: 13.6% | viability, T/C [25]: 61.9% | viability, T/C [26]: 56.9% | viability, T/C [27]: 58.7% | viability, T/C [28]: 50.3% | viability, T/C [29]: 35.1% | viability, T/C [30]: 17.1% | viability, T/C [31]: 57.5% | viability, T/C [32]: 64.1% | viability, T/C [33]: 57.2% | viability, T/C [34]: 51.9% | viability, T/C [35]: 33% | viability, T/C [36]: 16.2%

IC50 (second compound 0.0316 µM): > 10000 nM | IC50 (second compound 0.1 µM): > 10000 nM | IC50 (second compound 0.316 µM): > 10000 nM | IC50 (second compound 1 µM): > 10000 nM | IC50 (second compound 3.16 µM): > 10000 nM | IC50 (second compound 10 µM): > 10000 nM
Structure (SMILES): Cc1cccc(N(C)C(=O)C2C(O)CCN2c2nc(C)cc(C(F)(F)F)c2C#N)c1 (centres undefined) + Cc1cnc(CNC(=O)c2c(=O)c3ccc(N4CCCN(C)CC4)nc3n3c2sc2ccccc23)cn1
viability, T/C [1]: 105% | viability, T/C [2]: 87.2% | viability, T/C [3]: 90.4% | viability, T/C [4]: 92.2% | viability, T/C [5]: 88.5% | viability, T/C [6]: 79.7% | viability, T/C [7]: 86.9% | viability, T/C [8]: 88% | viability, T/C [9]: 77.6% | viability, T/C [10]: 76.2% | viability, T/C [11]: 80.6% | viability, T/C [12]: 79.5% | viability, T/C [13]: 73.5% | viability, T/C [14]: 73.1% | viability, T/C [15]: 75.8% | viability, T/C [16]: 69.7% | viability, T/C [17]: 77.7% | viability, T/C [18]: 69% | viability, T/C [19]: 67.5% | viability, T/C [20]: 66.5% | viability, T/C [21]: 71.1% | viability, T/C [22]: 66.4% | viability, T/C [23]: 74.2% | viability, T/C [24]: 70.3% | viability, T/C [25]: 65.3% | viability, T/C [26]: 60.9% | viability, T/C [27]: 63.1% | viability, T/C [28]: 55.9% | viability, T/C [29]: 68.8% | viability, T/C [30]: 67.8% | viability, T/C [31]: 60.9% | viability, T/C [32]: 66.7% | viability, T/C [33]: 61.3% | viability, T/C [34]: 66.2% | viability, T/C [35]: 67.6% | viability, T/C [36]: 66.8%
